One experiment concerns isolated optic nerve. Nature of the experiment: Simulated ischemia (OGD) in isolated optic nerves, LDH release. Further details: species or system Sprague Dawley rats. The conditions noted are these: 1 h ischemia with iodoacetate + 2 h reperfusion; MTA 100-300 μM. As to the method:
Ischemic damage was induced by substituting […] and adding 1 mM of the glyocolytic blocker iodoacetate (1 mM) for 1 h followed by 2 h of reperfusion in […] aCSF. Optic nerves during ischemia and reperfusion were incubated with vehicle, for controls, and with MTA or glutamate receptor antagonists, and subsequently processed for LDH release assay. The results are the mean±SEM of at least three different experiments performed in duplicate.
Cell viability in oligodendrocyte cultures was assayed after 24 h of exposure to MTA (1 μM to 3 mM) calcein-AM assays respectively followed by fluorimetry measurements (Synergy-HT). Oligodendrocyte protection from excitotoxicity and optic nerve damage after ischemia (1 hour+2 hours reperfusion) were examined using lactate dehydrogenase release assays in the presence or absence of MTA (100-300 μM for 3 hours).

Another experiment concerns caspase 3 activity. Nature of the experiment: NMDA-mediated increase in caspase 3 activity in mixed neuronal-glial culture. Conditions: NMDA 300 μM, MTA 250 μM or MK-801 10 μM. The experiment is classed as cell-based, Sprague-Dawley rat. As to the method:
Primary cultures of brain cortical neurons and glia were essentially prepared as described previously (Bruno et al., 2001, Eur. J. Neurosci., 13:1469-1478). The fronto-lateral cortical lobes were dissected out of Sprague-Dawley embryonic day 17 foetuses and were mechanically dissociated in Hanks' balanced solution. The cortical lobes were triturated by aspirating 7-10 times using a Pasteur pipette with a flame-narrowed tip. […]
Cortical neurons or mixed cortical neurons and glia were plated on poly-L-lysine-coated 6-well culture plates and after 7 DIV, cells were treated with vehicle or NMDA (300 μM) for different periods of time. […] Extracts were then centrifuged at 5,000×g for 10 min at 4° C., and protein content was determined by using the BCA protein assay according to the manufacturer instructions. Cell extracts (40 μg of protein) were incubated in reaction buffer (25 mM Hepes, 10% sucrose, 0.1% CHAPS, 10 mM DTT) containing 50 μM fluorescence substrate Z-DEVD-AFC at 37° C. for 1 h. Cleavage of the AFC fluorophore was determined in a spectrofluorometer at excitation wavelength of 400 nm and fluorescence was detected at an emission wavelength of 505 nm. Caspase 3 activity was expressed as units of fluorescence/mg of protein/h (Posadas et al., 2009, Pharm. Res., In press).

Results on 3 compounds are retold here after patent US20120083464A1, “NEUROPROTECTIVE PROPERTIES OF 5'-METHYLTHIOADENOSINE” (priority 2009, published 2012).

Entries after “also recorded” stand apart in the source; their conditions may differ.

For `N[C@H](CCCP(=O)(O)O)C(=O)O` [APV, (2R)-amino-5-phosphonovaleric acid], the “OGD/ischemia-induced damage in isolated optic nerve (LDH release)” value with isolated optic nerve was “reduced; also recorded: attenuated”.

For `C[C@]12N[C@H](Cc3ccccc31)c1ccccc12` [MK-801, reference compound], in the experiment with caspase 3 activity, the “protection against NMDA-induced caspase 3 activity” value is given as “neuroprotective action”.

Consider `N#Cc1cc2c(cc1[N+](=O)[O-])=NC(=O)C(=O)N=2` [CNQX, 6-cyano-7-nitro-quinoxaline-2,3-dione], for which the “OGD/ischemia-induced damage in isolated optic nerve (LDH release)” value in the experiment on isolated optic nerve is on record as “reduced; also recorded: attenuated”.
